Legend:
[1] = biological target: Dihydrofolate reductase (Lactobacillus casei) (UniProt P00381); details: Lacticaseibacillus casei
Description: Tested for pK value of histidine residue(His-28) of Dihydrofolate reductase from Lactobacillus casei

Dihydrofolate reductase [2] = biological target: T1, Dihydrofolate reductase (Lactobacillus casei, UniProt P00381); assay: Inhibition constant of compound against Lactobacillus casei Dihydrofolate reductase; set-up: species or system Lacticaseibacillus casei
Dihydrofolate reductase [3] = biological target: T1, Dihydrofolate reductase; assay: Inhibition constant of compound against Lactobacillus casei dihydrofolate reductase; set-up: species or system Lacticaseibacillus casei
[4] = biological target: Dihydrofolate reductase (Lactobacillus casei) (UniProt P00381); assay: Tested for pK value of histidine residue(His-28) of dihydrofolate reductase from Lactobacillus casei; assay type: functional; details: Lacticaseibacillus casei

Chain of Dihydrofolate reductase (Lactobacillus casei) (P00381 whole entry): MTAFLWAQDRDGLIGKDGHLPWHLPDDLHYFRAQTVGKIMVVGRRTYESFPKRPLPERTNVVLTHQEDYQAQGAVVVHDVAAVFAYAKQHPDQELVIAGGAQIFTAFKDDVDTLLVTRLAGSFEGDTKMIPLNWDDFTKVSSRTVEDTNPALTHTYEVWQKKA
T1 sequence (P00381 whole entry): as above

Row | SMILES | pK [1] | Ki (Dihydrofolate reductase [2]) | Ki (Dihydrofolate reductase [3]) | pK [4]
1 | COc1cc(Cc2cnc(N)nc2N)cc(OCCCNCCC(=O)O)c1Br | – | – | 5.3 nM | 6.71
2 | COc1cc(Cc2cnc(N)nc2N)cc(OCCCC(=O)O)c1Br | – | 0.9 nM | – | –
3 | COc1cc(Cc2cnc(N)nc2N)cc(OCCC(=O)NC(CCC(=O)O)C(=O)O)c1Br (stereo unspecified) | 7.12 | 1.7 nM | – | –
4 | COc1cc(Cc2cnc(N)nc2N)cc(OCCCC(CCC(=O)O)C(=O)O)c1Br (stereo unspecified) | 7.8 | < 0.01 nM | – | –

Now from value to compound:

Row | pK [1] | Ki (Dihydrofolate reductase [2]) | Ki (Dihydrofolate reductase [3]) | pK [4] | SMILES
5 | 6.8 | 0.6 nM | – | – | COc1cc(Cc2cnc(N)nc2N)cc(OCCCCCCC(=O)O)c1Br
6 | 6.71 | 4.1 nM | – | – | COc1cc(Cc2cnc(N)nc2N)cc(OCCC(=O)NCC(=O)O)c1Br
7 | – | 0.4 nM | – | – | COc1cc(Cc2cnc(N)nc2N)cc(OCCCCCC(=O)O)c1Br
8 | 6.83 | 0.2 nM | – | – | COc1cc(Cc2cnc(N)nc2N)cc(OCCCCC(=O)O)c1Br
9 | – | – | 11.3 nM | 6.8 | COc1cc(Cc2cnc(N)nc2N)cc(OC)c1Br [BRODIMOPRIM]

— ChEMBL document CHEMBL1122542, “A 1H NMR study of the interactions and conformations of rationally designed brodimoprim analogues in complexes with Lactobacillus casei dihydrofolate reductase” (J Med Chem, 1984)
